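Briefly, cells in 96-well plates were exposed to five compound concentrations for 48 h, and endpoints were estimated by linear interpolation. GI50 is the concentration that inhibits growth by half.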 Active and inactive are the calls of the source. No stated cut-off is given here; in the data, active = GI50 up to about 1.1 µM and inactive = higher.

These results are taken from ChEMBL document CHEMBL1201862, “PubChem BioAssay data set” (2004).

Common to all, as to assay: NCI anticancer screen, dose series, 48 h
Experiment [1] deals with SK-MEL-28.
Experiment [2] concerns RXF 393.
In experiment [3] the test system is PC-3.
Experiment [4] concerns A498.
For experiment [5], the system named is SK-MEL-5.
Experiment [6] concerns MDA-MB-231.
Experiment [7] has as its system OVCAR-8.
For experiment [8], the system named is SW-620.
For experiment [9], the system named is M14.
Experiment [10] deals with T47D.
Experiment [11] relates to U-251.
Experiment [12] concerns SK-OV-3.
Experiment [13] relates to MCF7.
The test system of experiment [14] is NCI-H460.
The test system of experiment [15] is CAKI-1.
For experiment [16], the system named is HOP-92.
In experiment [17] the test system is SNB-75.
For experiment [18], the system named is SK-MEL-2.
Experiment [19] has as its system NCI-H23.
For experiment [20], the system named is HCC 2998.

`Cc1cn([C@@H]2O[C@H](CO[Si](C)(C)C(C)(C)C)[C@]3(O[C@H]3C(=O)NO)[C@H]2O[Si](C)(C)C(C)(C)C)c(=O)[nH]c1=O`: the GI50 in experiment [1] is 1.76 µM (inactive); in [2] it was 1.73 µM (inactive); in experiment [3], 2.26 µM (inactive); in experiment [4] it was 1.9 µM (inactive); in experiment [5], 1.92 µM (inactive); in [6], 2.09 µM (inactive). The GI50 was 1.79 µM (inactive) in [7]; 1.91 µM (inactive) in experiment [8]; 1.85 µM (inactive) in experiment [9]; 1.66 µM (inactive) in experiment [10]; 1.7 µM (inactive) in [11]; 1.87 µM (inactive) in [12]. Moreover, the GI50 in experiment [13] was 1.71 µM (inactive); in experiment [14], 1.69 µM (inactive); in [15], 2.07 µM (inactive); in [16], 1.94 µM (inactive); in [17], 1.71 µM (inactive); in experiment [18], 2.01 µM (inactive). The GI50 in [19] is 1.91 µM (inactive); in experiment [20], 1.61 µM (inactive).

As to `C=C(C(=O)O)[C@@H]1C[C@@H]2O[C@H]1CC(C)=CCC/C(C)=C/CC[C@@]2(C)O`, the GI50 in experiment [1], in experiment [2], in experiment [3], in [4], in [5] and in [6] was > 100 µM (inactive) each time. In addition, the GI50 in experiment [7], in experiment [8], in experiment [9], in experiment [10], in [11] and in experiment [13] was > 100 µM (inactive) in each case. In addition, the GI50 was > 100 µM (inactive) in experiment [14]; > 100 µM (inactive) in [15]; 93.5 µM (inactive) in experiment [16]; > 100 µM (inactive) in [17]; > 100 µM (inactive) in experiment [18]; > 100 µM (inactive) in experiment [20].

For `CC(C)(CO)NC1=C(Cl)C(=O)c2c(O)ccc(O)c2C1=O`, the GI50 is 1.89 µM (inactive) in [1]; 1.85 µM (inactive) in experiment [2]; 1.87 µM (inactive) in experiment [3]; 1.84 µM (inactive) in experiment [4]; 1.09 µM (active) in [5]; 1.61 µM (inactive) in [6]. Also, the GI50 was 1.29 µM (inactive) in [7]; 0.327 µM (active) in experiment [8]; 0.865 µM (active) in [9]; 1.93 µM (inactive) in experiment [10]; 1.73 µM (inactive) in experiment [11]; 1.57 µM (inactive) in [12]. In addition, the GI50 was 1.33 µM (inactive) in [13]; 2.42 µM (inactive) in experiment [14]; 1.96 µM (inactive) in experiment [15]; 1.85 µM (inactive) in experiment [16]; 1.31 µM (inactive) in [17]; 2.32 µM (inactive) in experiment [18]. For the same molecule, the values for the GI50 in [19] and in experiment [20] were 1.58 µM (inactive) and 1.43 µM (inactive), respectively.

With `O=C(O)c1c(CC(Cc2ccc3c(c2)CCCC3)C(=O)O)ccc2c1CCCC2` (configuration not stated), the GI50 in [1], in experiment [2], in [3], in experiment [4], in [5] and in experiment [6] was > 100 µM (inactive) throughout. Besides, the GI50 in [7], in experiment [8], in experiment [9], in experiment [10], in experiment [11] and in experiment [12] was > 100 µM (inactive) each time. In addition, the GI50 in experiment [13] is < 0.01 µM (active); in [14], > 100 µM (inactive); in [15], > 100 µM (inactive); in [16], > 100 µM (inactive); in [17] it was > 100 µM (inactive); in experiment [18], > 100 µM (inactive). Further, the GI50 in [19] and in experiment [20] was > 100 µM (inactive) in each case.

For `COC(=O)c1c2c(cc3c1CC1(C3)Cc3cc4c(c(C(C)=O)c3C1)CCC4)C=CC2` (configuration not stated), the GI50 is 29.4 µM (inactive) in experiment [1]; > 10 µM (inactive) in experiment [2]; > 31.6 µM (inactive) in [3]; > 31.6 µM (inactive) in experiment [4]; 18.6 µM (inactive) in experiment [5]; > 20.7 µM (inactive) in experiment [6]. Moreover, the GI50 in experiment [7] is > 31.6 µM (inactive); in experiment [8], > 10 µM (inactive); in experiment [9] it was > 31.6 µM (inactive); in experiment [10], 5.69 µM (inactive); in experiment [11] it was > 31.6 µM (inactive); in experiment [12], > 10 µM (inactive). Besides, the GI50 in experiment [13] was 22.2 µM (inactive); in experiment [14], > 31.6 µM (inactive); in experiment [15] it was 44.2 µM (inactive); in experiment [16], > 31.6 µM (inactive); in experiment [17], 4.6 µM (inactive); in [18], > 31.6 µM (inactive). The GI50 in [19] is > 31.6 µM (inactive); in [20] it was > 10 µM (inactive).

Consider `CCOC(=O)c1cc(C)nc2c1c(=O)n(-c1ccccc1)c(=O)n2CCCCN1CCN(c2ccccc2)CC1`, for which the GI50 was > 100 µM (inactive) in experiment [1]; > 100 µM (inactive) in experiment [2]; 47.9 µM (inactive) in [3]; 27.6 µM (inactive) in experiment [4]; 38.6 µM (inactive) in experiment [5]; 48.1 µM (inactive) in experiment [6]. Also, the GI50 in [7] is > 100 µM (inactive); in [8], > 100 µM (inactive); in experiment [9], 38.9 µM (inactive); in [10], 24.3 µM (inactive); in experiment [11] it was > 100 µM (inactive); in experiment [12] it was > 100 µM (inactive). Also, the GI50 in [13] was 28.3 µM (inactive); in [15], 1.53 µM (inactive); in experiment [16] it was > 100 µM (inactive); in experiment [17] it was > 100 µM (inactive); in experiment [18], 64.9 µM (inactive); in experiment [19] it was 77.3 µM (inactive). Also, in experiment [20], the GI50 was 41.1 µM (inactive).

Turning to `Cc1ccc(S(=O)(=O)NC(=O)NCC(=O)NCC(=O)O)cc1`, the GI50 in experiment [1], in [2], in [3], in experiment [4], in experiment [5] and in experiment [6] was > 100 µM (inactive) throughout. Also, the GI50 in [7], in [8], in experiment [9], in experiment [10], in experiment [11] and in [12] was > 100 µM (inactive) throughout. Besides, the GI50 in experiment [13], in experiment [14], in experiment [15], in [16], in experiment [17] and in experiment [18] was > 100 µM (inactive) each time. For the same molecule, the GI50 in experiment [19] and in [20] was > 100 µM (inactive) in each case.

Take `C[C@]12CC[C@@H]3c4ccc(OP(=O)(O)O)cc4CC[C@H]3[C@@H]1CCC2=O`: the GI50 is > 100 µM (inactive) in experiment [1]; 56.9 µM (inactive) in experiment [2]; 62.4 µM (inactive) in experiment [3]; > 100 µM (inactive) in [4]; 28.4 µM (inactive) in experiment [5]; 80.7 µM (inactive) in [6]. For the same molecule, the GI50 was > 100 µM (inactive) in experiment [7]; 63.7 µM (inactive) in experiment [8]; 61.4 µM (inactive) in experiment [9]; 39.6 µM (inactive) in experiment [10]; 93.3 µM (inactive) in experiment [11]; > 100 µM (inactive) in experiment [12]. For the same molecule, the GI50 was > 100 µM (inactive) in experiment [13]; 91.6 µM (inactive) in [14]; > 100 µM (inactive) in experiment [15]; > 100 µM (inactive) in experiment [16]; 68.9 µM (inactive) in experiment [17]; 62.5 µM (inactive) in [18]. In addition, the values for the GI50 in [19] and in experiment [20] were 63.1 µM (inactive) and > 100 µM (inactive), respectively.

In the case of `NCCCCNCCCN1CC1`, the GI50 in experiment [1] is 1.72 µM (inactive); in [2] it was 0.123 µM (active); in [3] it was 5.22 µM (inactive); in experiment [4], 0.319 µM (active); in experiment [5] it was 1.71 µM (inactive); in [6], 0.624 µM (active). The GI50 is 0.883 µM (active) in experiment [7]; 4.16 µM (inactive) in experiment [8]; 2.89 µM (inactive) in experiment [9]; 0.354 µM (active) in experiment [10]; 1.3 µM (inactive) in [11]; 0.977 µM (active) in experiment [12]. The GI50 in experiment [13] is 20.6 µM (inactive); in [14] it was 5.5 µM (inactive); in experiment [15] it was 0.0893 µM (active); in experiment [16], 0.279 µM (active); in experiment [17], 0.246 µM (active); in experiment [18], 0.752 µM (active). The GI50 in experiment [19] was 2.57 µM (inactive); in experiment [20] it was 5.73 µM (inactive).

Turning to `CC1=CC(=O)[C@@H](O)[C@]2(C)[C@H]3[C@@]4(O)OC[C@@]35[C@@H](C[C@@H]12)OC(=O)C(OC(=O)CC1=CCCC1)[C@H]5[C@@H](C)[C@H]4O` (some centres not stated), the GI50 in [1] is 0.0204 µM (active); in experiment [2] it was 0.04 µM (active); in experiment [3] it was 0.0311 µM (active); in experiment [4], 0.429 µM (active); in experiment [5], 0.0167 µM (active); in experiment [6] it was 0.0559 µM (active). For the same molecule, the GI50 in experiment [7] was 0.0279 µM (active); in experiment [8] it was 0.0622 µM (active); in [9], 0.0294 µM (active); in [10], 0.0771 µM (active); in experiment [11], 0.0158 µM (active); in experiment [12], 0.551 µM (active). The GI50 was < 0.0142 µM (active) in experiment [13]; 0.023 µM (active) in experiment [14]; 0.167 µM (active) in experiment [15]; 0.0548 µM (active) in experiment [16]; 0.0423 µM (active) in experiment [17]; 0.0547 µM (active) in experiment [18]. Further, the GI50 in experiment [19] is 0.0187 µM (active); in experiment [20], 0.04 µM (active).
